Laboratory results as given in article PMC9873307, “Methylone, a rapid acting entactogen with robust anxiolytic and antidepressant-like activity” (Frontiers in Psychiatry, 2023).

Assays:
[1] = tested on: brain serotonin; details: repeated doses; cited from earlier work
[2] = tested on: male Sprague Dawley rats; test: Forced swim test (FST); type: in vivo, rat; details: for percent time spent immobile: 30 min before 5-min test
Method: Male Sprague Dawley rats (Charles River Laboratories) weighing 180–200 g on arrival, were used for all behavioral studies, which took place at Melior Discovery (Exton, PA, USA). Rats acclimated to their home cages for at least 1 week before testing, were maintained in a controlled environment on a 12 h light/dark cycle, with no more than 2 rats per cage. Animals received ad libitum access to standard rodent chow and water and were assigned randomly to treatment groups. All animal use and procedures were in accordance with established protocols approved by the Melior IACUC committee, Melior Standard Operation Procedures (SOP), and Transcend Therapeutics. Distinct cohorts of animals were used for each experiment/Figure presented in this manuscript.
Methylone HCl (0.5–30 mg/kg; Cayman Chemical) or Fluoxetine HCl (10 mg/kg; Sigma-Aldrich) were formulated in sterile 0.9% saline vehicle before IP administration. Control animals received saline vehicle. Methylone or saline was administered 30 min prior to FST or OFT testing sessions. Fluoxetine or saline were administered 23.5, 5, and 1 h prior to testing, consistent with previous studies ([19]).
All studies were performed and scored by an experimenter blind to treatment group according to standard protocols at Melior Discovery (Exton, PA, USA) and based on published “modified FST” procedures ([20]). Briefly, rats were placed in a circular plexiglass container (29.2 cm diameter, 49.5 cm height) filled with water to a depth of 30 cm so rats could not support themselves by touching the bottom of the tank. Water was maintained at 22–25°C and was changed for every animal. Day 1 (Training) consisted of a 15 min acclimation trial, and Day 2 (Testing, 24 h later) consisted of the 5 min test. A time sampling procedure was employed where animals were observed every 5 s for the duration of the test session (60 counts or 5 min) and scored for immobility (defined as the failure to struggle), swimming (defined as a circular movement around the tank), or climbing (defined as an upward escape behavior). Data are expressed as the percent time spent immobile, swimming, or climbing for the 5-min testing session (e.g., the number of immobility counts divided by 60). Therefore, to extrapolate these values to time spent immobile in minutes, one can multiply the percent time immobile by 5 min.

[3] = tested on: rodents; parameters: method as in PMID 23839026, PMID 28882561, PMID 22509960, PMID 22922498; details: cited from earlier work
[4] = tested on: PTSD patients; parameters: method as in earlier work; details: retrospective clinical case series; cited from earlier work

CNC(C)C(=O)c1ccc2c(c1)OCO2 (centres unmarked) [methylone, 3,4-methylenedioxy-N-methylcathinone]
depletion of brain serotonin [1]: do not deplete brain serotonin
reduced immobility relative to Vehicle controls ([2]; after a single dose of methylone): 78–98%
duration of antidepressant-like effect ([2]; after a single dose of methylone 15 mg/kg IP): at least 72 h
percent time spent immobile ([2]; methylone 5 mg/kg IP, Vehicle 63.9 ± 2.7%): 31.9 ± 4.7%
climbing vs vehicle on retest ([2]; methylone 15 mg/kg IP once, 30 min, 24, 72 h, Figure 3D): small but significant effect of methylone on climbing was observed at 30 min only
swimming vs vehicle on retest ([2]; methylone 15 mg/kg IP once, 30 min, 24, 72 h, Figure 3F): significantly increasing swimming at all three time points tested
immobility vs vehicle on retest ([2]; methylone 15 mg/kg IP once, tested 30 min, 24 and 72 h, Figure 3B): reducing immobility significantly at all-time points
climbing behavior vs controls ([2]; methylone 0.5–30 mg/kg IP dose response, 30 min before, Figure 1D): increased only by low to mid doses of methylone (5–10 mg/kg)
percent time spent immobile ([2]; methylone 10–15 mg/kg IP, Vehicle 63.9 ± 2.7%): 4.2 ± 1.3%
immobility at highest doses ([2]; methylone 20–30 mg/kg, not statistically significant): trend toward less reduction in immobility
climbing compared to vehicle ([2]; methylone alone 5 mg/kg IP 30 min before, Figure 6C): significantly increased climbing
% time immobile ([2]; methylone alone, 15 mg/kg, Figure 1B, Vehicle 63.9 ± 2.7%): 4.2 ± 1.8%
dose of first significant effect on immobility ([2]; methylone dose response): 5 mg/kg
dose of maximal effect on immobility ([2]; methylone dose response): 10 mg/kg
swimming behavior vs controls ([2]; methylone mid to high doses, 30 min before, Figure 1F): significantly increased
change in immobility vs vehicle control ([2]; methylone single low dose 5 mg/kg IP, 30 min before): ~50%
onset of effect ([2]; single dose of methylone): ≤ 30 min
reduction of immobility vs. controls ([2]; single dose of methylone (5–30 mg/kg) 30 min prior to testing): ~95%
locomotor activity [3]: increase locomotor activity
effect on symptoms of PTSD [4]: alleviates symptoms of PTSD
